From the supplement of paper PMC10307832

Key:
Test in all cases: relative viability (nuclei count vs DMSO), 5 days (fraction); higher = more cells survive
[1] = test system: NCI-H1355
Method in brief: (§1)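 Dosing by pin tool came one day after lung cancer cell lines were seeded in 1536-well plates, using either one drug or a fixed anchor-drug dose plus five library-drug doses (not always all listed) in √10 steps. After 5 days, nuclei were counted on 4× images. Relative viability is treated-well nuclei count divided by vehicle-well nuclei count, and values are medians of duplicate plates.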

[2] = test system: HOP-62
Method in brief: as §1

[3] = test system: 201T
Method in brief: as §1

[4] = test system: LCLC-97TM1
Method in brief: as §1

[5] = test system: NCI-H2405
Method in brief: as §1

[6] = test system: NCI-H1437
Method in brief: as §1

[7] = test system: NCI-H1650
Method in brief: as §1

[8] = test system: RERF-LC-KJ
Method in brief: as §1

[9] = test system: SK-LU-1
Method in brief: as §1

[10] = test system: HCC-44
Method in brief: as §1

[11] = test system: NCI-H2228
Method in brief: as §1

[12] = test system: NCI-H3122
Method in brief: as §1

[13] = test system: NCI-H727
Method in brief: as §1

[14] = test system: CAL-12T
Method in brief: as §1

[15] = test system: NCI-H647
Method in brief: as §1

[16] = test system: HCC-827
Method in brief: as §1

[17] = test system: BEN
Method in brief: as §1

[18] = test system: LXF-289
Method in brief: as §1

[19] = test system: NCI-H322M
Method in brief: as §1

[20] = test system: NCI-H2023
Method in brief: as §1

[21] = test system: NCI-H2087
Method in brief: as §1

[22] = test system: LCLC-103H
Method in brief: as §1

Clc1ccc(Nc2nnc(Cc3ccncc3)c3ccccc23)cc1 [Vatalanib] + CC(C)C[C@H](NC(=O)[C@H](Cc1ccccc1)NC(=O)c1cnccn1)B(O)O [Bortezomib] (partner 0.002 µM)
relative viability ([1]; first compound 0.04 µM): 1.18
relative viability ([1]; first compound 0.1265 µM): 1.22
relative viability ([1]; first compound 0.4 µM): 1.21
relative viability ([1]; first compound 1.265 µM): 1.09
relative viability ([1]; first compound 4 µM): 1.1
relative viability ([2]; first compound 0.04 µM): 0.977
relative viability ([2]; first compound 0.4 µM): 0.857
relative viability ([2]; first compound 1.265 µM): 0.849
relative viability ([2]; first compound 4 µM): 1.09
relative viability ([3]; first compound 0.04 µM): 1.08
relative viability ([3]; first compound 0.1265 µM): 1.11
relative viability ([3]; first compound 0.4 µM): 1.11
relative viability ([3]; first compound 1.265 µM): 1.08
relative viability ([3]; first compound 4 µM): 1.13
relative viability ([4]; first compound 0.04 µM): 0.529
relative viability ([4]; first compound 0.1265 µM): 0.523
relative viability ([4]; first compound 0.4 µM): 0.528
relative viability ([4]; first compound 1.265 µM): 0.31
relative viability ([4]; first compound 4 µM): 0.769
relative viability ([5]; first compound 0.04 µM): 1
relative viability ([5]; first compound 0.1265 µM): 1.03
relative viability ([5]; first compound 0.4 µM): 0.76
relative viability ([5]; first compound 1.265 µM): 0.957
relative viability ([5]; first compound 4 µM): 0.939
relative viability ([6]; first compound 0.04 µM): 0.57
relative viability ([6]; first compound 0.1265 µM): 0.577
relative viability ([6]; first compound 0.4 µM): 0.507
relative viability ([6]; first compound 1.265 µM): 0.445
relative viability ([6]; first compound 4 µM): 0.495
relative viability ([7]; first compound 0.04 µM): 0.196
relative viability ([7]; first compound 0.1265 µM): 0.217
relative viability ([7]; first compound 0.4 µM): 0.206
relative viability ([7]; first compound 1.265 µM): 0.174
relative viability ([7]; first compound 4 µM): 0.195
relative viability ([8]; first compound 0.04 µM): 1.05
relative viability ([8]; first compound 0.1265 µM): 1.1
relative viability ([8]; first compound 0.4 µM): 0.958
relative viability ([8]; first compound 1.265 µM): 0.904
relative viability ([8]; first compound 4 µM): 0.969
relative viability ([9]; first compound 0.04 µM): 1.25
relative viability ([9]; first compound 0.1265 µM): 0.981
relative viability ([9]; first compound 1.265 µM): 1.19
relative viability ([9]; first compound 4 µM): 1.14
relative viability ([10]; first compound 0.04 µM): 0.92
relative viability ([10]; first compound 0.1265 µM): 0.855
relative viability ([10]; first compound 0.4 µM): 0.903
relative viability ([10]; first compound 1.265 µM): 0.828
relative viability ([10]; first compound 4 µM): 0.857
relative viability ([11]; first compound 0.04 µM): 0.865
relative viability ([11]; first compound 0.1265 µM): 0.803
relative viability ([11]; first compound 0.4 µM): 0.94
relative viability ([11]; first compound 1.265 µM): 0.951
relative viability ([11]; first compound 4 µM): 1.11
relative viability ([12]; first compound 0.04 µM): 1.01
relative viability ([12]; first compound 0.1265 µM): 1.06
relative viability ([12]; first compound 0.4 µM): 1.08
relative viability ([12]; first compound 1.265 µM): 1.07
relative viability ([12]; first compound 4 µM): 1.01
relative viability ([13]; first compound 0.04 µM): 0.908
relative viability ([13]; first compound 0.1265 µM): 0.776
relative viability ([13]; first compound 0.4 µM): 0.827
relative viability ([13]; first compound 1.265 µM): 0.854
relative viability ([13]; first compound 4 µM): 0.706
relative viability ([14]; first compound 0.04 µM): 0.933
relative viability ([14]; first compound 0.1265 µM): 0.774
relative viability ([14]; first compound 1.265 µM): 0.988
relative viability ([14]; first compound 4 µM): 1.05
relative viability ([15]; first compound 0.04 µM): 1.05
relative viability ([15]; first compound 0.1265 µM): 0.971
relative viability ([15]; first compound 0.4 µM): 1.07
relative viability ([15]; first compound 1.265 µM): 0.943
relative viability ([15]; first compound 4 µM): 1.06
relative viability ([16]; first compound 0.04 µM): 1.04
relative viability ([16]; first compound 0.1265 µM): 0.877
relative viability ([16]; first compound 0.4 µM): 1.05
relative viability ([16]; first compound 1.265 µM): 1.12
relative viability ([16]; first compound 4 µM): 1.03
relative viability ([17]; first compound 0.04 µM): 0.851
relative viability ([17]; first compound 0.1265 µM): 0.682
relative viability ([17]; first compound 0.4 µM): 0.906
relative viability ([17]; first compound 1.265 µM): 0.665
relative viability ([17]; first compound 4 µM): 0.806
relative viability ([18]; first compound 0.04 µM): 1.07
relative viability ([18]; first compound 0.1265 µM): 0.976
relative viability ([18]; first compound 0.4 µM): 0.991
relative viability ([18]; first compound 1.265 µM): 0.931
relative viability ([18]; first compound 4 µM): 0.964
relative viability ([19]; first compound 0.04 µM): 1.19
relative viability ([19]; first compound 0.1265 µM): 1.31
relative viability ([19]; first compound 0.4 µM): 1.33
relative viability ([19]; first compound 1.265 µM): 1.28
relative viability ([19]; first compound 4 µM): 1.08
relative viability ([20]; first compound 0.04 µM): 1.02
relative viability ([20]; first compound 0.1265 µM): 0.837
relative viability ([20]; first compound 0.4 µM): 1.02
relative viability ([20]; first compound 1.265 µM): 0.946
relative viability ([20]; first compound 4 µM): 0.695
relative viability ([21]; first compound 0.04 µM): 1.05
relative viability ([21]; first compound 0.1265 µM): 0.744
relative viability ([21]; first compound 0.4 µM): 0.92
relative viability ([21]; first compound 1.265 µM): 0.917
relative viability ([21]; first compound 4 µM): 0.753
relative viability ([22]; first compound 0.04 µM): 1.07
relative viability ([22]; first compound 0.1265 µM): 1.12
relative viability ([22]; first compound 0.4 µM): 1.07
relative viability ([22]; first compound 1.265 µM): 1.01
relative viability ([22]; first compound 4 µM): 1.13

C[C@@H]1CN(CC(=O)Nc2ccc3c(c2)Cc2cccc(-c4cc(=O)cc(N5CCOCC5)o4)c2S3)C[C@H](C)O1 + C[C@@H](Oc1cc(-c2cnn(C3CCNCC3)c2)cnc1N)c1c(Cl)ccc(F)c1Cl [Crizotinib] (partner 1 µM)
relative viability ([1]; first compound 0.04 µM): 0.955
relative viability ([1]; first compound 0.1265 µM): 1.07
relative viability ([1]; first compound 0.4 µM): 1.03
relative viability ([1]; first compound 4 µM): 1.1
relative viability ([2]; first compound 0.04 µM): 0.876
relative viability ([2]; first compound 0.1265 µM): 1
relative viability ([2]; first compound 0.4 µM): 0.884
relative viability ([2]; first compound 4 µM): 0.941
relative viability ([3]; first compound 0.04 µM): 1.05
relative viability ([3]; first compound 0.1265 µM): 0.98
relative viability ([3]; first compound 0.4 µM): 1.04
relative viability ([3]; first compound 4 µM): 0.971
relative viability ([4]; first compound 0.1265 µM): 0.396
relative viability ([4]; first compound 0.4 µM): 0.287
relative viability ([4]; first compound 4 µM): 0.337
relative viability ([5]; first compound 0.04 µM): 0.754
relative viability ([5]; first compound 0.1265 µM): 0.855
relative viability ([5]; first compound 0.4 µM): 0.893
relative viability ([5]; first compound 4 µM): 0.8
relative viability ([6]; first compound 0.04 µM): 0.986
relative viability ([6]; first compound 0.1265 µM): 0.899
relative viability ([6]; first compound 0.4 µM): 0.924
relative viability ([6]; first compound 4 µM): 0.778
relative viability ([7]; first compound 0.04 µM): 0.991
relative viability ([7]; first compound 0.1265 µM): 0.959
relative viability ([7]; first compound 0.4 µM): 1.1
relative viability ([7]; first compound 4 µM): 0.55
relative viability ([8]; first compound 0.04 µM): 0.861
relative viability ([8]; first compound 0.1265 µM): 0.779
relative viability ([8]; first compound 0.4 µM): 0.909
relative viability ([8]; first compound 4 µM): 0.722
relative viability ([9]; first compound 0.04 µM): 1.08
relative viability ([9]; first compound 0.1265 µM): 0.905
relative viability ([9]; first compound 0.4 µM): 0.902
relative viability ([9]; first compound 4 µM): 0.605
relative viability ([10]; first compound 0.04 µM): 0.853
relative viability ([10]; first compound 0.1265 µM): 0.828
relative viability ([10]; first compound 0.4 µM): 0.699
relative viability ([10]; first compound 4 µM): 0.526
relative viability ([11]; first compound 0.04 µM): 0.568
relative viability ([11]; first compound 0.1265 µM): 0.394
relative viability ([11]; first compound 0.4 µM): 0.283
relative viability ([11]; first compound 4 µM): 0.341
relative viability ([12]; first compound 0.04 µM): 0.349
relative viability ([12]; first compound 0.1265 µM): 0.324
relative viability ([12]; first compound 0.4 µM): 0.264
relative viability ([12]; first compound 4 µM): 0.282
relative viability ([13]; first compound 0.04 µM): 0.891
relative viability ([13]; first compound 0.1265 µM): 0.746
relative viability ([13]; first compound 0.4 µM): 0.927
relative viability ([13]; first compound 4 µM): 0.624
relative viability ([14]; first compound 0.04 µM): 0.644
relative viability ([14]; first compound 0.1265 µM): 0.526
relative viability ([14]; first compound 0.4 µM): 0.693
relative viability ([14]; first compound 4 µM): 0.297
relative viability ([15]; first compound 0.04 µM): 1.04
relative viability ([15]; first compound 0.1265 µM): 1.09
relative viability ([15]; first compound 0.4 µM): 1.09
relative viability ([15]; first compound 4 µM): 0.592
relative viability ([16]; first compound 0.04 µM): 1
relative viability ([16]; first compound 0.1265 µM): 0.817
relative viability ([16]; first compound 0.4 µM): 0.929
relative viability ([16]; first compound 4 µM): 0.983
relative viability ([17]; first compound 0.04 µM): 0.812
relative viability ([17]; first compound 0.1265 µM): 0.82
relative viability ([17]; first compound 0.4 µM): 0.964
relative viability ([17]; first compound 4 µM): 0.95
relative viability ([18]; first compound 0.04 µM): 0.777
relative viability ([18]; first compound 0.1265 µM): 0.877
relative viability ([18]; first compound 0.4 µM): 0.814
relative viability ([18]; first compound 4 µM): 0.799
relative viability ([19]; first compound 0.04 µM): 0.599
relative viability ([19]; first compound 0.1265 µM): 0.863
relative viability ([19]; first compound 0.4 µM): 1.08
relative viability ([19]; first compound 4 µM): 0.959
relative viability ([20]; first compound 0.04 µM): 0.655
relative viability ([20]; first compound 0.1265 µM): 0.634
relative viability ([20]; first compound 0.4 µM): 0.664
relative viability ([20]; first compound 4 µM): 0.516
relative viability ([21]; first compound 0.04 µM): 0.936
relative viability ([21]; first compound 0.1265 µM): 0.929
relative viability ([21]; first compound 0.4 µM): 0.895
relative viability ([21]; first compound 4 µM): 0.748
relative viability ([22]; first compound 0.04 µM): 1.08
relative viability ([22]; first compound 0.1265 µM): 1.03
relative viability ([22]; first compound 0.4 µM): 0.984
relative viability ([22]; first compound 4 µM): 1.03
